Measured values from article PMC11205865, “Unlocking the distinctive enzymatic functions of the early plant biomass deconstructive genes in a brown rot fungus by cell-free protein expression” (Applied and Environmental Microbiology, 2024).

Experiments:
[1] = system: T1, heme-thiolate peroxidase (HTP), Pospl1|61079; test: ABTS oxidation with H2O2; assay type: cell-based, Rhodonia placenta; conditions: 50–900 µM ABTS; H2O2 as oxidant; crude cell-free mixture with hemin and nanodiscs
T1 construct: synthetic CDS in pEU-E01-MCS, wheat germ cell-free expression with nanodiscs and hemin (S1b), crude mixture, predicted 32 kDa
Protocol: ABTS oxidation with H2O2 on heme-thiolate peroxidase (HTP), Pospl1|61079 | Km and Vmax values for enzymes HTP, ABF, BQR, and FRD were determined

[2] = system: T2, benzoquinone reductase (BQR), Pospl1|124517; test: NADPH consumption during […],6-DMBQ reduction; assay type: cell-based, Rhodonia placenta; conditions: 30–570 µM 2,6-DMBQ; NADPH co-substrate; FMN cofactor; crude cell-free mixture
T2 construct: synthetic CDS in pEU-E01-MCS, wheat germ cell-free expression, crude translation mixture (sample S2), predicted 25 kDa, intracellular, no tag stated

| Structure (SMILES) | Km [1] | Km [2] |
| --- | --- | --- |
| CCn1c(=NN=c2sc3cc(S(=O)(=O)O)ccc3n2CC)sc2cc(S(=O)(=O)O)ccc21 [ABTS] | 142 µM |  |
| COC1=CC(=O)C=C(OC)C1=O [2,6-DMBQ, 2,6-dimethoxy-1,4-benzoquinone] |  | 214 µM |
